{"source": "ChEMBL document CHEMBL3507680", "about": "“University of Dundee, Gates Library screen for HepG2 cell viability”", "assay": "Human HepG2 cell viability assay in 384 well format", "type": "toxicity, cell-based", "parameters": "dose 125 nL, time 70.5 hour; cytotoxicity at 70.5 h: concentration not given beside the values", "conditions": "HepG2 cells, read-out: Inhibition"}
{"smiles": "O=C(NCc1ccccc1)N1CCc2ncnc(NC3CC3)c2CC1", "values": [{"measurement": "cytotoxicity at 70.5 h", "value": -3.8, "unit": "%"}]}
{"smiles": "CCCc1nnc(NC2CCN(Cc3ccc(F)c(F)c3)CC2)o1", "values": [{"measurement": "cytotoxicity at 70.5 h", "value": -6.56, "unit": "%"}]}
{"smiles": "CCC(Nc1ccc(CCN2CCOCC2)cc1)C(N)=O", "note": "(stereo not given)", "values": [{"measurement": "cytotoxicity at 70.5 h", "value": -19.6, "unit": "%"}]}
{"smiles": "Cc1n[nH]c(C)c1C1CCCN1C(=O)NC(C)(C)C", "note": "(stereo not given)", "values": [{"measurement": "cytotoxicity at 70.5 h", "value": 4.46, "unit": "%"}]}
{"smiles": "COc1cc(CCNC(=O)NCCC2CCCO2)ccc1C", "note": "(stereo not given)", "values": [{"measurement": "cytotoxicity at 70.5 h", "value": -9.73, "unit": "%"}]}
{"smiles": "CCc1nnc2n1CC(CNCc1ccncc1)CC2", "note": "(stereo not given)", "values": [{"measurement": "cytotoxicity at 70.5 h", "value": -6.39, "unit": "%"}]}
{"smiles": "CN1CCC[C@H]1c1nc(-c2cncnc2N)no1", "values": [{"measurement": "cytotoxicity at 70.5 h", "value": -7.81, "unit": "%"}]}
{"smiles": "Cc1ccc2c(c1)C(NC1CCN(C)CC1)CCCO2", "note": "(stereo not given)", "values": [{"measurement": "cytotoxicity at 70.5 h", "value": 15.4, "unit": "%"}]}
{"smiles": "COc1cc(C)sc1C(=O)NCCNc1ccccc1", "values": [{"measurement": "cytotoxicity at 70.5 h", "value": 11.2, "unit": "%"}]}
{"smiles": "Cc1nc(CNC(=O)[C@@H]2CCCN2C(=O)OC(C)(C)C)cs1", "values": [{"measurement": "cytotoxicity at 70.5 h", "value": -7.16, "unit": "%"}]}
{"smiles": "CN(C(=O)c1ccon1)[C@@H]1CCC[C@@H](Oc2ccccc2)[C@@H]1O", "values": [{"measurement": "cytotoxicity at 70.5 h", "value": -1.37, "unit": "%"}]}
{"smiles": "CC(=O)N1CCN(Cc2ccsc2)CC2(CC(=O)N(C)C2)C1", "note": "(stereo not given)", "values": [{"measurement": "cytotoxicity at 70.5 h", "value": -12.2, "unit": "%"}]}
{"smiles": "COc1cccc(CNCc2c(C(C)C)nn(C)c2N(C)C)c1", "values": [{"measurement": "cytotoxicity at 70.5 h", "value": 1.8, "unit": "%"}]}
{"smiles": "CN1CCC(CNC(=O)c2cccc(C(F)(F)F)c2)c2ccccc21", "note": "(stereo not given)", "values": [{"measurement": "cytotoxicity at 70.5 h", "value": 0.294, "unit": "%"}]}
{"smiles": "COc1ncc(NC(=O)Nc2cc(C)ccc2OC)cn1", "values": [{"measurement": "cytotoxicity at 70.5 h", "value": 39.1, "unit": "%"}]}
{"smiles": "Oc1ccc(N2CCC(Cc3ccccc3)CC2)nn1", "values": [{"measurement": "cytotoxicity at 70.5 h", "value": -4.56, "unit": "%"}]}
{"smiles": "CCc1n[nH]c(C2CN(C(=O)c3ccnc(N(C)C)c3)CCO2)n1", "note": "(stereo not given)", "values": [{"measurement": "cytotoxicity at 70.5 h", "value": 20.1, "unit": "%"}]}
{"smiles": "CN(Cc1ccco1)C(=O)CN1CCCC1Cn1cncn1", "note": "(stereo not given)", "values": [{"measurement": "cytotoxicity at 70.5 h", "value": 3.18, "unit": "%"}]}
{"smiles": "CCn1ncc2c1CCCC2NCc1ccc(OC)c(C)c1", "note": "(stereo not given)", "values": [{"measurement": "cytotoxicity at 70.5 h", "value": 33.6, "unit": "%"}]}
{"smiles": "CN(C)c1cccc(C(=O)N2CCc3ccc(=O)[nH]c3CC2)c1", "values": [{"measurement": "cytotoxicity at 70.5 h", "value": -6.59, "unit": "%"}]}
{"smiles": "NC(=O)NCC(=O)N1CCC(c2cc(-c3ccccc3Cl)n[nH]2)CC1", "values": [{"measurement": "cytotoxicity at 70.5 h", "value": -4.95, "unit": "%"}]}
{"smiles": "O=C(c1ccc(F)cc1F)N1C[C@H]2CC[C@@H]1CN(Cc1ccccc1)C2", "values": [{"measurement": "cytotoxicity at 70.5 h", "value": -2.62, "unit": "%"}]}
{"smiles": "CCNC(=O)C1CCCN(Cn2nc(C(C)(C)C)ccc2=O)C1", "note": "(stereo not given)", "values": [{"measurement": "cytotoxicity at 70.5 h", "value": 21.4, "unit": "%"}]}
{"smiles": "CC(=O)N1CC[C@@H]2CN(C(=O)c3ccco3)CCO[C@@H]2C1", "values": [{"measurement": "cytotoxicity at 70.5 h", "value": -29.3, "unit": "%"}]}
{"smiles": "CCCS(=O)(=O)N1C[C@@H]2CC[C@H](C1)N(Cc1cscn1)C2=O", "values": [{"measurement": "cytotoxicity at 70.5 h", "value": -9.73, "unit": "%"}]}
{"smiles": "CC(C)CC(=O)N1CC[C@@H]2CN(Cc3cccnc3)S(=O)(=O)[C@@H]2CC1", "values": [{"measurement": "cytotoxicity at 70.5 h", "value": -4.78, "unit": "%"}]}
{"smiles": "Cc1nonc1N1CCN(Cc2nc(CC3CC3)no2)CC1", "values": [{"measurement": "cytotoxicity at 70.5 h", "value": -2.56, "unit": "%"}]}
{"smiles": "CC(C)N1CCc2ncn(C(C)C)c2C1C(=O)N1CCN(C)CC1", "note": "(stereo not given)", "values": [{"measurement": "cytotoxicity at 70.5 h", "value": 6.34, "unit": "%"}]}
{"smiles": "COC(=O)[C@@H](NC(=O)c1coc(COc2cccc(F)c2)n1)C(C)C", "values": [{"measurement": "cytotoxicity at 70.5 h", "value": 4.83, "unit": "%"}]}
{"smiles": "CC(C)c1noc(CCNC(=O)NCC2Cc3ccccc3O2)n1", "note": "(stereo not given)", "values": [{"measurement": "cytotoxicity at 70.5 h", "value": -13.5, "unit": "%"}]}
{"smiles": "c1ccc2c(NCC3(N4CCOCC4)CCSC3)ncnc2c1", "note": "(stereo not given)", "values": [{"measurement": "cytotoxicity at 70.5 h", "value": 2.49, "unit": "%"}]}
{"smiles": "O=C(Cc1ccsc1)N1CCC(c2ccncc2)CC1", "values": [{"measurement": "cytotoxicity at 70.5 h", "value": -13.6, "unit": "%"}]}
{"smiles": "CC(=O)N1CCN(Cc2ccc(F)c(C(F)(F)F)c2)CC(O)C1", "note": "(stereo not given)", "values": [{"measurement": "cytotoxicity at 70.5 h", "value": -8.55, "unit": "%"}]}
{"smiles": "O=C(CCc1cccs1)N1CCCC(n2ccnc2)C1", "note": "(stereo not given)", "values": [{"measurement": "cytotoxicity at 70.5 h", "value": -5.36, "unit": "%"}]}
{"smiles": "Cc1nc2n(n1)CC(Nc1cc(C(F)(F)F)nc3ncnn13)CC2", "note": "(stereo not given)", "values": [{"measurement": "cytotoxicity at 70.5 h", "value": -0.866, "unit": "%"}]}
{"smiles": "Cc1ccc(C2CSCCN2CC(=O)N2CCOCC2)cc1", "note": "(stereo not given)", "values": [{"measurement": "cytotoxicity at 70.5 h", "value": -5.8, "unit": "%"}]}
{"smiles": "Cc1cc(C)cc(NS(=O)(=O)c2cc3c(c(C(=O)O)c2)OCCO3)c1", "values": [{"measurement": "cytotoxicity at 70.5 h", "value": -5.38, "unit": "%"}]}
{"smiles": "Cc1ccc(CSCCn2nc3ccccn3c2=O)cc1", "values": [{"measurement": "cytotoxicity at 70.5 h", "value": -1.35, "unit": "%"}]}
{"smiles": "CN(Cc1ccc(F)cc1)S(=O)(=O)N1CCOCC1", "values": [{"measurement": "cytotoxicity at 70.5 h", "value": 6.44, "unit": "%"}]}
{"smiles": "Fc1cccc(Cl)c1CN1CCn2c(nnc2C2CC2)C1", "values": [{"measurement": "cytotoxicity at 70.5 h", "value": -10.3, "unit": "%"}]}
{"smiles": "CNC(=O)[C@@H]1COC[C@H]2CN(C(=O)c3ccc(C)c(F)c3)C[C@H]21", "values": [{"measurement": "cytotoxicity at 70.5 h", "value": -6.14, "unit": "%"}]}
{"smiles": "Cc1oc(C(=O)O)cc1S(=O)(=O)Nc1cccc(Cl)c1F", "values": [{"measurement": "cytotoxicity at 70.5 h", "value": -7.29, "unit": "%"}]}
{"smiles": "CC(=O)N1CCN(CCNC(=O)NC(C)Cn2ccnc2)CC1", "note": "(stereo not given)", "values": [{"measurement": "cytotoxicity at 70.5 h", "value": -2.74, "unit": "%"}]}
{"smiles": "c1cnc(N2CCC(OCCN3CCCCC3)C2)nc1", "note": "(stereo not given)", "values": [{"measurement": "cytotoxicity at 70.5 h", "value": -10.2, "unit": "%"}]}
{"smiles": "CN(C)C(=O)CN1CCC2(CCN(C(=O)N3CCCC3)CC2)C1=O", "values": [{"measurement": "cytotoxicity at 70.5 h", "value": -3.29, "unit": "%"}]}
